# Laboratory results: ChEMBL document CHEMBL1201861, “Genomics of Drug Sensitity in Cancer screening data, Wellcome Trust Sanger Institute”
# Assays:
# Assay in all cases: cells
# COLO-741 = type: functional, cell-based; conditions: Homo sapiens
# Description: SANGER: Inhibition of human COLO-741 cell growth in a cell viability assay.
# COR-L105 = type: functional, cell-based; conditions: Homo sapiens;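 further: cell growth inhibition determined with a viability assay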
# Description: SANGER: Inhibition of human COR-L105 cell growth in a cell viability assay.
# Calu-3 = type: functional, cell-based; conditions: Homo sapiens;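 further: growth inhibition of human Calu-3 cells, determined with a cell viability assay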
# Description: SANGER: Inhibition of human Calu-3 cell growth in a cell viability assay.
# DU-145 = type: functional, cell-based; conditions: Homo sapiens
# Description: SANGER: Inhibition of human DU-145 cell growth in a cell viability assay.
# HCC1937 = type: functional, cell-based; conditions: Homo sapiens;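 further: growth inhibition measured with a cell viability read-out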
# Description: SANGER: Inhibition of human HCC1937 cell growth in a cell viability assay.
# HCT-116 = type: functional, cell-based; conditions: Homo sapiens
# Description: SANGER: Inhibition of human HCT-116 cell growth in a cell viability assay.
# HO-1-N-1 = type: functional, cell-based; conditions: Homo sapiens;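 further: growth inhibition of human HO-1-N-1 cells, read out with a cell viability assay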
# Description: SANGER: Inhibition of human HO-1-N-1 cell growth in a cell viability assay.
# HuP-T4 = type: functional, cell-based; conditions: Homo sapiens;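 further: cell viability assay measuring how much HuP-T4 cell growth is inhibited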
# Description: SANGER: Inhibition of human HuP-T4 cell growth in a cell viability assay.
# KYSE-410 = type: functional, cell-based; conditions: Homo sapiens;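 further: growth inhibition of KYSE-410 cells, measured through a cell viability readout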
# Description: SANGER: Inhibition of human KYSE-410 cell growth in a cell viability assay.
# KYSE-520 cell line = type: functional, cell-based; conditions: Homo sapiens;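 further: growth inhibition of human KYSE-520 cells, read out with a viability assay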
# Description: SANGER: Inhibition of human KYSE-520 cell growth in a cell viability assay.
# M14 = type: functional, cell-based; conditions: Homo sapiens;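 further: growth inhibition of M14 cells, read out with a cell viability assay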
# Description: SANGER: Inhibition of human M14 cell growth in a cell viability assay.
# MC-IXC = type: functional, cell-based; conditions: Homo sapiens;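 further: growth inhibition of MC-IXC cells, read out with a cell viability assay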
# Description: SANGER: Inhibition of human MC-IXC cell growth in a cell viability assay.
# MDA-MB-175-VII = type: functional, cell-based; conditions: Homo sapiens
# MDA-MB-231 = type: functional, cell-based; conditions: Homo sapiens
# Description: SANGER: Inhibition of human MDA-MB-231 cell growth in a cell viability assay.
# MKN-7 = type: functional, cell-based; conditions: Homo sapiens;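 further: growth inhibition of MKN-7 cells, read out with a cell viability assay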
# Description: SANGER: Inhibition of human MKN7 cell growth in a cell viability assay.
# NB12 = type: functional, cell-based; conditions: Homo sapiens;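 further: growth inhibition of human NB12 cells, read out by a cell viability assay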
# Description: SANGER: Inhibition of human NB12 cell growth in a cell viability assay.
# NB17 = type: functional, cell-based, Homo sapiens; conditions: Homo sapiens, NB17;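 further: growth inhibition of NB17 cells, read out with a cell viability assay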
# Description: SANGER: Inhibition of human NB17 cell growth in a cell viability assay.
# NCI-H1792 = type: functional, cell-based; conditions: Homo sapiens;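 further: growth inhibition of human NCI-H1792 cells, read out as cell viability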
# Description: SANGER: Inhibition of human NCI-H1792 cell growth in a cell viability assay.
# NCI-H2405 = type: functional, cell-based; conditions: Homo sapiens;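 further: growth inhibition of the human cell line, read out with a cell viability assay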
# Description: SANGER: Inhibition of human NCI-H2405 cell growth in a cell viability assay.
# OAW-42 = type: functional, cell-based; conditions: Homo sapiens;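 further: growth inhibition of OAW-42 cells, read out with a cell viability assay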
# Description: SANGER: Inhibition of human OAW-42 cell growth in a cell viability assay.
# OE33 = type: functional, cell-based; conditions: Homo sapiens;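 further: growth inhibition of human OE33 cells, measured by a cell viability assay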
# Description: SANGER: Inhibition of human OE33 cell growth in a cell viability assay.
# OVCAR-8 = type: functional, cell-based; conditions: Homo sapiens;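 further: growth inhibition of human OVCAR-8 cells, read out by a cell viability assay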
# Description: SANGER: Inhibition of human OVCAR-8 cell growth in a cell viability assay.
# PA-1 = type: functional, cell-based; conditions: Homo sapiens;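 further: IC50 for suppression of PA-1 cell proliferation, determined with a cell viability read-out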
# Description: SANGER: Inhibition of human PA-1 cell growth in a cell viability assay.
# PANC-03-27 = type: functional, cell-based; conditions: Homo sapiens
# Description: SANGER: Inhibition of human PANC-03-27 cell growth in a cell viability assay.
# PFSK-1 = type: functional, cell-based; conditions: Homo sapiens;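 further: cell viability assay measuring how strongly compounds suppress growth of human PFSK-1 cells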
# Description: SANGER: Inhibition of human PFSK-1 cell growth in a cell viability assay.
# RMG-I = type: functional, cell-based; conditions: Homo sapiens;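 further: growth inhibition of human RMG-I cells, read out with a cell viability assay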
# Description: SANGER: Inhibition of human RMG-I cell growth in a cell viability assay.
# RT-112 = type: functional, cell-based; conditions: Homo sapiens
# Description: SANGER: Inhibition of human RT-112 cell growth in a cell viability assay.
# SF-295 = type: functional, cell-based; conditions: Homo sapiens;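 further: growth inhibition of SF-295 cells, read out with a cell viability assay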
# Description: SANGER: Inhibition of human SF295 cell growth in a cell viability assay.
# SNU-449 = type: functional, cell-based; conditions: Homo sapiens
# Description: SANGER: Inhibition of human SNU-449 cell growth in a cell viability assay.
# T-24 = type: functional, cell-based; conditions: Homo sapiens;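 further: growth inhibition of T-24 cells, read out with a cell viability assay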
# Description: SANGER: Inhibition of human T-24 cell growth in a cell viability assay.
# T47D = type: functional, cell-based; conditions: Homo sapiens;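 further: growth inhibition of human T47D cells, measured with a cell viability assay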
# Description: SANGER: Inhibition of human T47D cell growth in a cell viability assay.
# 8305C = type: functional, cell-based; conditions: Homo sapiens
# Description: SANGER: Inhibition of human 8305C cell growth in a cell viability assay.
# A2058 = type: functional, cell-based; conditions: Homo sapiens;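 further: reduction of A2058 cell growth, read out with a viability assay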
# Description: SANGER: Inhibition of human A2058 cell growth in a cell viability assay.
# A-427 = type: functional, cell-based; conditions: Homo sapiens;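 further: growth inhibition of human A-427 cells, read out by a cell viability assay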
# Description: SANGER: Inhibition of human A427 cell growth in a cell viability assay.
# ASPC1 = type: functional, cell-based; conditions: Homo sapiens;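 further: growth inhibition of AsPC-1 cells, read out with a cell viability assay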
# Description: SANGER: Inhibition of human AsPC-1 cell growth in a cell viability assay.
# BCPAP = type: functional, cell-based; conditions: Homo sapiens;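 further: growth inhibition of BCPAP cells, read out in a cell viability assay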
# Description: SANGER: Inhibition of human BCPAP cell growth in a cell viability assay.
# BHT-101 = type: functional, cell-based; conditions: Homo sapiens
# Description: SANGER: Inhibition of human BHT-101 cell growth in a cell viability assay.
# C3A = type: functional, cell-based; conditions: Homo sapiens;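 further: growth inhibition of C3A human cells, quantified with a cell viability readout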
# Description: SANGER: Inhibition of human C3A cell growth in a cell viability assay.
# CAKI-1 = type: functional, cell-based; conditions: Homo sapiens;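 further: growth inhibition of CAKI-1 cells, measured by a cell viability assay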
# Description: SANGER: Inhibition of human CAKI-1 cell growth in a cell viability assay.
# CAL-27 = type: functional, cell-based; conditions: Homo sapiens;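 further: Viability-based readout, IC50 reflecting inhibition of CAL-27 cell growth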
# Description: SANGER: Inhibition of human CAL-27 cell growth in a cell viability assay.
# CAL-62 = type: functional, cell-based; conditions: Homo sapiens;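 further: growth inhibition of CAL-62 cells, read out with a cell viability assay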
# Description: SANGER: Inhibition of human CAL-62 cell growth in a cell viability assay.
# WM-115 = type: functional, cell-based; conditions: Homo sapiens
# Description: SANGER: Inhibition of human WM-115 cell growth in a cell viability assay.
# COLO-679 = type: functional, cell-based; conditions: Homo sapiens
# Description: SANGER: Inhibition of human COLO-679 cell growth in a cell viability assay.
structure (smiles),measurement,setting,value
CC1(C)CCC(c2ccc(Cl)cc2)=C(CN2CCN(c3ccc(C(=O)NS(=O)(=O)c4ccc(N[C@H](CCN5CCOCC5)CSc5ccccc5)c(S(=O)(=O)C(F)(F)F)c4)cc3)CC2)C1 [NAVITOCLAX],IC50,COLO-741,> 2 µM
same,IC50,COR-L105,> 2 µM
same,IC50,Calu-3,1.71 µM
same,IC50,DU-145,0.899 µM
same,IC50,HCC1937,> 2 µM
same,IC50,HCT-116,> 2 µM
same,IC50,HO-1-N-1,> 2 µM
same,IC50,HuP-T4,> 2 µM
same,IC50,KYSE-410,> 2 µM
same,IC50,KYSE-520 cell line,> 2 µM
same,IC50,M14,> 2 µM
same,IC50,MC-IXC,> 2 µM
same,IC50,MDA-MB-175-VII,> 2 µM
same,IC50,MDA-MB-231,> 2 µM
same,IC50,MKN-7,> 2 µM
same,IC50,NB12,0.231 µM
same,IC50,NB17,0.0712 µM
same,IC50,NCI-H1792,> 2 µM
same,IC50,NCI-H2405,> 2 µM
same,IC50,OAW-42,0.961 µM
same,IC50,OE33,> 2 µM
same,IC50,OVCAR-8,> 2 µM
same,IC50,PA-1,0.956 µM
same,IC50,PANC-03-27,> 2 µM
same,IC50,PFSK-1,> 2 µM
same,IC50,RMG-I,0.495 µM
same,IC50,RT-112,> 2 µM
same,IC50,SF-295,> 2 µM
same,IC50,SNU-449,> 2 µM
same,IC50,T-24,> 2 µM
same,IC50,T47D,> 2 µM
same,IC50,8305C,> 2 µM
same,IC50,A2058,> 2 µM
same,IC50,A-427,0.93 µM
same,IC50,ASPC1,> 2 µM
same,IC50,BCPAP,> 2 µM
same,IC50,BHT-101,> 2 µM
same,IC50,C3A,> 2 µM
same,IC50,CAKI-1,> 2 µM
same,IC50,CAL-27,> 2 µM
same,IC50,CAL-62,> 2 µM
same,IC50,WM-115,0.277 µM
same,IC50,COLO-679,> 2 µM
O=C1NC(=O)c2c1c(-c1ccccc1Cl)cc1[nH]c3ccc(O)cc3c21,IC50,COLO-741,> 2 µM
same,IC50,COR-L105,> 2 µM
same,IC50,Calu-3,> 2 µM
same,IC50,DU-145,0.161 µM
same,IC50,HCC1937,> 2 µM
same,IC50,HCT-116,> 2 µM
same,IC50,HO-1-N-1,1.39 µM
same,IC50,HuP-T4,> 2 µM
same,IC50,KYSE-410,1.56 µM
same,IC50,KYSE-520 cell line,> 2 µM
same,IC50,M14,1.69 µM
same,IC50,MC-IXC,> 2 µM
same,IC50,MDA-MB-231,> 2 µM
same,IC50,MKN-7,> 2 µM
same,IC50,NB12,> 2 µM
same,IC50,NB17,> 2 µM
same,IC50,NCI-H1792,> 2 µM
same,IC50,NCI-H2405,> 2 µM
same,IC50,OE33,> 2 µM
same,IC50,OVCAR-8,1.18 µM
same,IC50,PA-1,> 2 µM
same,IC50,PANC-03-27,1.21 µM
same,IC50,PFSK-1,> 2 µM
same,IC50,RT-112,> 2 µM
same,IC50,SNU-449,> 2 µM
same,IC50,T-24,> 2 µM
same,IC50,T47D,> 2 µM
same,IC50,8305C,> 2 µM
same,IC50,A2058,> 2 µM
same,IC50,A-427,> 2 µM
same,IC50,ASPC1,> 2 µM
same,IC50,BCPAP,> 2 µM
same,IC50,BHT-101,> 2 µM
same,IC50,C3A,> 2 µM
same,IC50,CAKI-1,> 2 µM
same,IC50,CAL-27,> 2 µM
same,IC50,CAL-62,> 2 µM
same,IC50,WM-115,> 2 µM
same,IC50,COLO-679,> 2 µM
O=C(NCCCNc1nc(Nc2cccc(NC(=O)N3CCCC3)c2)ncc1I)c1cccs1 [BX-795],IC50,COLO-741,> 5 µM
same,IC50,COR-L105,> 5 µM
same,IC50,Calu-3,> 5 µM
same,IC50,DU-145,> 5 µM
same,IC50,HCC1937,> 5 µM
same,IC50,HCT-116,4.99 µM
same,IC50,HO-1-N-1,1.97 µM
same,IC50,HuP-T4,> 5 µM
same,IC50,KYSE-410,> 5 µM
same,IC50,KYSE-520 cell line,> 5 µM
same,IC50,M14,> 5 µM
same,IC50,MC-IXC,2.9 µM
same,IC50,MDA-MB-175-VII,> 5 µM
same,IC50,MDA-MB-231,> 5 µM
same,IC50,MKN-7,> 5 µM
same,IC50,NB12,> 5 µM
same,IC50,NB17,> 5 µM
same,IC50,NCI-H1792,> 5 µM
same,IC50,NCI-H2405,4.68 µM
same,IC50,OAW-42,3.66 µM
same,IC50,OE33,> 5 µM
same,IC50,OVCAR-8,> 5 µM
same,IC50,PA-1,0.804 µM
same,IC50,PANC-03-27,4.21 µM
same,IC50,PFSK-1,> 5 µM
same,IC50,RMG-I,> 5 µM
same,IC50,RT-112,4.01 µM
same,IC50,SF-295,4.18 µM
same,IC50,SNU-449,5 µM
same,IC50,T-24,> 5 µM
same,IC50,T47D,> 5 µM
same,IC50,8305C,3.61 µM
same,IC50,A2058,2.98 µM
same,IC50,A-427,1.74 µM
same,IC50,ASPC1,> 5 µM
same,IC50,BCPAP,2.23 µM
same,IC50,BHT-101,1.58 µM
same,IC50,C3A,> 5 µM
same,IC50,CAKI-1,2.28 µM
same,IC50,CAL-27,> 5 µM
same,IC50,CAL-62,> 5 µM
same,IC50,WM-115,3.88 µM
same,IC50,COLO-679,> 5 µM
NC1(c2ccc(-c3nc4ccn5c(=O)[nH]nc5c4cc3-c3ccccc3)cc2)CCC1 [MK-2206],IC50,COLO-741,> 4 µM
same,IC50,COR-L105,1.8 µM
same,IC50,Calu-3,> 4 µM
same,IC50,DU-145,0.647 µM
same,IC50,HCC1937,> 4 µM
same,IC50,HCT-116,> 4 µM
same,IC50,HO-1-N-1,> 4 µM
same,IC50,HuP-T4,> 4 µM
same,IC50,KYSE-410,> 4 µM
same,IC50,KYSE-520 cell line,> 4 µM
same,IC50,M14,> 4 µM
same,IC50,MC-IXC,> 4 µM
same,IC50,MDA-MB-175-VII,0.137 µM
same,IC50,MDA-MB-231,> 4 µM
same,IC50,MKN-7,> 4 µM
same,IC50,NB12,> 4 µM
same,IC50,NB17,> 4 µM
same,IC50,NCI-H1792,> 4 µM
same,IC50,NCI-H2405,> 4 µM
same,IC50,OAW-42,0.887 µM
same,IC50,OE33,> 4 µM
same,IC50,OVCAR-8,> 4 µM
same,IC50,PA-1,1.35 µM
same,IC50,PANC-03-27,> 4 µM
same,IC50,PFSK-1,> 4 µM
same,IC50,RMG-I,2.16 µM
same,IC50,RT-112,3.52 µM
same,IC50,SF-295,> 4 µM
same,IC50,SNU-449,> 4 µM
same,IC50,T-24,2.48 µM
same,IC50,T47D,0.282 µM
same,IC50,8305C,> 4 µM
same,IC50,A-427,> 4 µM
same,IC50,ASPC1,0.221 µM
same,IC50,BCPAP,> 4 µM
same,IC50,BHT-101,0.53 µM
same,IC50,C3A,> 4 µM
same,IC50,CAKI-1,> 4 µM
same,IC50,CAL-27,> 4 µM
same,IC50,CAL-62,> 4 µM
same,IC50,WM-115,> 4 µM
same,IC50,COLO-679,> 4 µM
CO[C@@H]1[C@H](N(C)C(=O)c2ccccc2)C[C@H]2O[C@]1(C)n1c3ccccc3c3c4c(c5c6ccccc6n2c5c31)C(=O)NC4 [MIDOSTAURIN],IC50,DU-145,0.319 µM
same,IC50,HO-1-N-1,> 0.512 µM
same,IC50,MC-IXC,0.266 µM
same,IC50,NCI-H1792,0.331 µM
same,IC50,NCI-H2405,0.351 µM
same,IC50,PANC-03-27,0.16 µM
same,IC50,SF-295,0.273 µM
same,IC50,T47D,> 0.512 µM
same,IC50,8305C,> 0.512 µM
